Measured values taken from paper PMC10037499, “High-Throughput Screen Reveals the Structure–Activity Relationship of the Antimicrobial Lasso Peptide Ubonodin” (ACS Central Science, 2023).
Where a SMILES comes first, the peptide text is derived from it.

Test system: RNA polymerase (RNAP) in E. coli MC1061
Assay: High-throughput growth-based screen with NGS (enrichment value) for RNA polymerase inhibition
Type: cell-based
Conditions: log2 of frequency post-IPTG / frequency in cloning transformation library, single mutant library
In short: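 E. coli MC1061 carrying ubonodin single/double variant plasmid libraries was grown and induced with 10 µM or 100 µM IPTG; surviving colonies were sequenced by NGS. Enrichment value = log2 of variant frequency post-IPTG over frequency in the cloning transformation library; depletion indicates RNAP inhibition.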

`CC[C@H](C)[C@@H]1NC(=O)[C@H](CO)NC(=O)CNC(=O)[C@H](CC(=O)O)NC(=O)CNC(=O)CNC(=O)CC[C@@H](C(=O)N[C@@H](Cc2ccc(O)cc2)C(=O)N[C@@H](Cc2ccccc2)C(=O)N[C@@H](CC(N)=O)C(=O)N[C@@H](CCCNC(=N)N)C(=O)N2CCC[C@H]2C(=O)N[C@@H](CCSC)C(=O)N[C@@H](Cc2c[nH]cn2)C(=O)N[C@H](C(=O)N[C@@H](Cc2c[nH]cn2)C(=O)N[C@@H](CC(=O)O)C(=O)N[C@@H](Cc2c[nH]c3ccccc23)C(=O)N[C@@H](CCC(N)=O)C(=O)N[C@H](C(=O)N[C@@H](CCSC)C(=O)N[C@@H](CC(=O)O)C(=O)N[C@@H](CO)C(=O)NCC(=O)N[C@@H](Cc2ccc(O)cc2)C(=O)N[C@@H](Cc2ccc(O)cc2)C(=O)NCC(=O)O)[C@@H](C)CC)[C@@H](C)CC)NC(=O)[C@H](C)NC1=O` [WT, ubonodin] (HELM PEPTIDE1{G.G.D.G.S.I.A.E.Y.F.N.R.P.M.H.I.H.D.W.Q.I.M.D.S.G.Y.Y.G}$PEPTIDE1,PEPTIDE1,1:R1-8:R3$$$V2.0; C-terminus assumed) was tested, and the Enrichment value (induction with 10 μM IPTG) was −4.2 and the Enrichment value (induction with 100 μM IPTG) was −4.3.
